Assay results from BindingDB's records for patent US20250026766 (Beigene, 2025).

Biological target: T1, DNA polymerase theta [1-894] (UniProt O75417)
T1 construct: 1-894
Experiment: Biochemical Pol Theta (1-894) ATPase IC50 Assay
Procedure: The inhibition activities testing for the compound disclosed herein were carried out at room temperature in assay buffer containing 40 mM Tris pH 7.5, 20 mM MgCl2, 1 mM DTT, 0.01% BSA and 0.05% Tween-20. […] After 1 hour reaction, 5 μL ADP-Glo reagent (Promga V9102) was added and incubated for 40 minutes. 10 μL Kinase Detection reagent was added and incubated for 40 minutes. Luminescence was measured on a microplate reader (PHERAstar FSX, BMG labtech). The IC50 values were calculated based on inhibition of enzyme activity in the presence of increasing concentrations of compounds.

T1 sequence (O75417 1-894): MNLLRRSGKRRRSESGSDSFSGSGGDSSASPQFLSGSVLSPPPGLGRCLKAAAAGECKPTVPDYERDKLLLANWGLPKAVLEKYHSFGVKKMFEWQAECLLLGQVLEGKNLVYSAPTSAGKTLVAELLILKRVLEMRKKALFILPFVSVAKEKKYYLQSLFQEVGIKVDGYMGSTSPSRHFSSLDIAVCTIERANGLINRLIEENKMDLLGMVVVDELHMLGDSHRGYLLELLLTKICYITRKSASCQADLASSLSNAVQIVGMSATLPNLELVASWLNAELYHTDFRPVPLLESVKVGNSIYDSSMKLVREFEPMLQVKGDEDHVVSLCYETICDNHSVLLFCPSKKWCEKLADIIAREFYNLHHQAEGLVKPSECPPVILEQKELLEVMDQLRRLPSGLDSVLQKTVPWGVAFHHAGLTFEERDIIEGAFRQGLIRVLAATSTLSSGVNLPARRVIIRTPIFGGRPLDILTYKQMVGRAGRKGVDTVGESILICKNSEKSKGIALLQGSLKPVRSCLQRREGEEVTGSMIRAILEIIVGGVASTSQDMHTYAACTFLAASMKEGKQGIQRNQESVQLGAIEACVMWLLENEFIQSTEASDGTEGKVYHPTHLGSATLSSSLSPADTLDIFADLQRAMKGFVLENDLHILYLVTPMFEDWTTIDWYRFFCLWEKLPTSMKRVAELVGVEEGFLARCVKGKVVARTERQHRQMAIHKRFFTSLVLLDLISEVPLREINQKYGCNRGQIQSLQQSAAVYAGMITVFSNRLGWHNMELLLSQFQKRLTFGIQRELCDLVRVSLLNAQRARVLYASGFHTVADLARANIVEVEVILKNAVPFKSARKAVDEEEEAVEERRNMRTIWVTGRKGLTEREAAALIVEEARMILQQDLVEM

Compound | IC50
COc1ccccc1-c1cnncc1C(=O)Nc1nc2ccc(-c3ccc(Cl)cc3OC(C)C)nc2s1 [US20250026766, Example 143] | 22 nM
Cc1ccc(-c2ccc3nc(NC(=O)c4ccc(C#N)nc4N4CCOCC4)sc3n2)cc1 [US20250026766, Example 4] | 1560 nM
